What all share (assay type): functional, organism-based
For one assay, the system named is Candida albicans. As to the kind of experiment: Antimicrobial activity against Candida albicans.
The next assay deals with Pseudomonas aeruginosa. The experiment in a line: Antimicrobial activity against Pseudomonas aeruginosa at 1 mg/mL by cup diffusion method.
A further assay relates to Aspergillus niger. As to the kind of experiment: Antimicrobial activity against Aspergillus niger.
The test system of a further assay is Bacillus pumilus. The experiment in a line: Antimicrobial activity against Bacillus pumilus at 1 mg/mL by cup diffusion method.
The subject of the next assay is Proteus vulgaris. The experiment in a line: Antimicrobial activity against Proteus vulgaris at 1 mg/mL by cup diffusion method.
Another assay relates to Bacillus subtilis. As to the kind of experiment: Antimicrobial activity against Bacillus subtilis at 1 mg/mL by cup diffusion method.
A further assay has as its system Escherichia coli. The experiment in a line: Antimicrobial activity against Escherichia coli at 1 mg/mL by cup diffusion method.
For a further assay, the system named is Staphylococcus aureus. The experiment in a line: Antimicrobial activity against Staphylococcus aureus at 1 mg/mL by cup diffusion method.

Active and inactive are the calls of the source. The rule behind the calls is not given here.

Regarding `CCCCCCCCCCCCC/C=C/[C@@H](O)[C@H](CO)NC(=O)CCCCCCCCCCCCCCCC`, the result with Candida albicans and in the assay with Aspergillus niger was inactive. The result with Pseudomonas aeruginosa, in the assay with Bacillus pumilus, in the assay on Proteus vulgaris, in the assay on Bacillus subtilis, with Escherichia coli and in the assay with Staphylococcus aureus was Active.
Consider `CCCCCCCCCCCCCCCCC[C@@H](O)C(=O)N[C@@H](CO)[C@H](O)[C@H](O)CCCCCCCCCCCCCCC`, for which the outcome with Candida albicans and with Aspergillus niger was inactive. The outcome in the assay with Pseudomonas aeruginosa, in the assay on Bacillus pumilus, in the assay with Proteus vulgaris, with Bacillus subtilis, with Escherichia coli and in the assay on Staphylococcus aureus was Active.
Regarding `CCCCCCCCCCCCCCCCCCCCCC(=O)N[C@@H](CO)[C@H](O)CCCCCCCCCCCCCCCC`, the result in the assay with Candida albicans and in the assay with Aspergillus niger was inactive. Moreover, the outcome in the assay with Pseudomonas aeruginosa, in the assay on Bacillus pumilus, with Proteus vulgaris, in the assay on Bacillus subtilis, with Escherichia coli and in the assay with Staphylococcus aureus was Active.
